Experimental data from patent publication US7153813B2, “Substituted aryl ketones” (Bayer Aktiengesellschaft, priority 2002, dated 2006).
Read-outs that look alike come from different tables or passages of the source.

Columns and labels:
weeds [1] = test: Pre-Emergence Test (Example A), damage to weeds; assay type: in vivo; details: soil sprayed 24 hours after sowing, rated after three weeks
Protocol: (§1) • Solvent: 5 parts by weight of acetone • Emulsifier: 1 part by weight of alkylaryl polyglycol ether
To produce a suitable preparation of active compound, 1 part by weight of active compound is mixed with the stated amount of solvent, the stated amount of emulsifier is added and the concentrate is diluted with water to the desired concentration.
Seeds of the test plants are sown in normal soil. After 24 hours, the soil is sprayed with the preparation of active compound such that the particular amount of active compound desired is applied per unit area. The concentration of active compound in the spray liquor is chosen such that the particular amount of active compound desired is applied in 1000 liters of water per hectare.
After three Weeks, the degree of damage to the plants is rated in % damage in comparison to the development of the untreated control. The figures denote: • 0%=no effect (like untreated control) • 100%=total destruction

[2] = logP determination by HPLC (EEC Directive 79/831 Annex V.A8), reverse-phase column C 18; assay type: physicochemical; details: for chromatographic logP: reverse-phase C18 HPLC column, stated in the preparation example, read-out: Log P
Protocol: The logP values given in the tables were determined in accordance with EEC Directive 79/831 Annex V.A8 by HPLC (High Performance Liquid Chromatography) using a reverse-phase column (C 18). Temperature: 43° C. • (a) Mobile phases for the determination in the acidic range: 0.1% aqueous phosphoric acid, acetonitrile; linear gradient from 10% acetonitrile to 90% acetonitrile—corresponding measurement data are marked a) in Table 1. • (b) Mobile phases for the determination in the neutral range: 0.01 molar aqueous phosphate buffer solution, acetonitrile; linear gradient from 10% acetonitrile to 90% acetonitrile—the corresponding measurement data are marked b) in Table 1. The calibration was carried out using unbranched alkan-2-ones (having 3 to 16 carbon atoms) with known logP values (determination of the logP values by the retention times using linear interpolation between two successive alkanones).

weeds [3] = test: Post-Emergence Test (Example B), damage to weeds; assay type: in vivo; details: test plants of 5–15 cm sprayed, rated after three weeks
Protocol: as §1
To produce a suitable preparation of active compound, 1 part by weight of active compound is mixed with the stated amount of solvent, the stated of amount of emulsifier is added and the concentrate is diluted with water to the desired concentration.
Test plants of a height of 5–15 cm are sprayed with the preparation of active compound such that the particular amounts of active compound desired are applied per unit area. The concentration of the spray liquor is chosen such that the particular amounts of active compound desired are applied in 1000 l of water/Ha.
After three weeks, the degree of damage to the plants is rated in % damage in comparison to the development of the untreated control.
The figures denote: • 0%=no effect (like untreated control) • 100%=total destruction

[4] = HPLC, reverse-phase C 18, 43° C., acidic range: 0.1% aqueous phosphoric acid, acetonitrile, gradient 10% to 90% (marked a))

Row | SMILES | activity against weeds (degree of damage) (weeds [1]) | logP [2] | logP [2, 4] | chromatographic logP [2] | activity against weeds (degree of damage) (weeds [3])
1 | CCn1ncc(C(=O)c2ccc(C(F)(F)F)cc2CS(C)(=O)=O)c1OCc1ccc(Cl)cc1 [Example 10] | strong activity | logP = 3.64^a) |  |  | 
2 | CCSCc1cc(C(F)(F)F)ccc1C(=O)c1cnn(CC)c1O [Example 32] |  |  | logP = 3.36^a) |  | 
3 | C#CCOc1c(C(=O)c2ccc(C(F)(F)F)cc2CS(C)(=O)=O)cnn1C [Example 29] |  | logP = 2.30^a) |  |  | 
4 | CCn1ncc(C(=O)c2ccc(C(F)(F)F)cc2CS(C)(=O)=O)c1OCc1ccc(Br)cc1 [Example 2, [1-ethyl-5-(4-bromophenylmethoxy)-1H-pyrazol-4-yl]-(2-methylsulphonylmethyl-4-trifluoromethylphenyl)methanone] | strong activity |  | logP = 3.76^a) | 3.76 | strong activity
5 | CCn1ncc(C(=O)c2ccc(C(F)(F)F)cc2CS(C)(=O)=O)c1OCc1cccc(Cl)c1 [Example 15] | strong activity | logP = 3.60^a) |  |  | 
6 | CCn1ncc(C(=O)c2ccc(C(F)(F)F)cc2CS(C)(=O)=O)c1OCc1ccc(C)cc1 [Example 13] | strong activity | logP = 3.57^a) |  |  | 
7 | CCn1ncc(C(=O)c2ccc(C(F)(F)F)cc2CS(C)(=O)=O)c1OCc1cccc(C)c1 [Example 16] | strong activity | logP = 3.57^a) |  |  | 
8 | CCn1ncc(C(=O)c2ccc(C(F)(F)F)cc2CS(C)(=O)=O)c1OS(=O)(=O)c1ccc(C)cc1 [Example 22] | strong activity |  | logP = 3.39^a) |  | 
9 | CCn1ncc(C(=O)c2ccc(C(F)(F)F)cc2CS(C)(=O)=O)c1O [Example 1, (1-ethyl-5-hydroxy-1H-pyrazol-4-yl)-(2-methylsulphonylmethyl-4-trifluoromethylphenyl)methanone] | strong activity |  | logP = 1.88^a) | 1.88 | strong activity
10 | Cn1ncc(C(=O)c2ccc(C(F)(F)F)cc2CS(C)(=O)=O)c1O [Example 4] | strong activity |  | logP = 1.57^a) |  | 
11 | Cn1ncc(C(=O)c2ccc(C(F)(F)F)cc2CS(C)(=O)=O)c1OCc1ccccc1 [Example 5] | strong activity | logP = 2.94^a) |  |  | strong activity
12 | Cn1ncc(C(=O)c2ccc(C(F)(F)F)cc2CS(C)(=O)=O)c1OCc1ccc(Br)cc1 [Example 8] | strong activity | logP = 3.41^a) |  |  | 
13 | CCOC(=O)COc1c(C(=O)c2ccc(C(F)(F)F)cc2CS(C)(=O)=O)cnn1CC [Example 25] |  | logP = 2.72^a) |  |  | 
14 | CCOC(=O)C(C)Oc1c(C(=O)c2ccc(C(F)(F)F)cc2CS(C)(=O)=O)cnn1CC (centres unmarked) [Example 26] |  | logP = 3.01^a) |  |  | 
15 | Cn1ncc(C(=O)c2ccc(C(F)(F)F)cc2CS(C)(=O)=O)c1OCc1ccc(Cl)cc1 [Example 7] | strong activity | logP = 3.32^a) |  |  | 
16 | CCn1ncc(C(=O)c2ccc(C(F)(F)F)cc2CS(C)(=O)=O)c1OCc1ccccc1C [Example 19] | strong activity | logP = 3.52^a) |  |  | strong activity

Row | SMILES | activity against weeds (degree of damage) (weeds [1]) | logP [2] | logP [2, 4] | chromatographic logP [2] | activity against weeds (degree of damage) (weeds [3])
17 | CCOC(=O)COc1c(C(=O)c2ccc(C(F)(F)F)cc2CS(C)(=O)=O)cnn1C [Example 27] |  | logP = 2.44^a) |  |  | 
18 | CCn1ncc(C(=O)c2ccc(C(F)(F)F)cc2CS(C)(=O)=O)c1OCc1cccc(F)c1 [Example 14] | strong activity | logP = 3.30^a) |  |  | 
19 | CCn1ncc(C(=O)c2ccc(C(F)(F)F)cc2CS(C)(=O)=O)c1OS(C)(=O)=O [Example 23] | strong activity | logP = 2.50^a) |  |  | strong activity
20 | CCn1ncc(C(=O)c2ccc(C(F)(F)F)cc2CS(C)(=O)=O)c1OC(=O)c1ccccc1 [Example 21] | strong activity | logP = 3.07^a) |  |  | 
21 | CCn1ncc(C(=O)c2ccc(C(F)(F)F)cc2CS(C)(=O)=O)c1OCc1ccccc1 [Example 11] | strong activity | logP = 3.26^a) |  |  | 
22 | CC1(C)CCC(=O)C(C(=O)c2ccc(C(F)(F)F)cc2CS(C)(=O)=O)C1=O (centres unmarked) [Example 30] |  | logP = 2.86^a) |  |  | 
23 | Cc1ccc(COc2c(C(=O)c3ccc(C(F)(F)F)cc3CS(C)(=O)=O)cnn2C)cc1 [Example 9] | strong activity | logP = 3.26^a) |  |  | 
24 | CCn1ncc(C(=O)c2ccc(C(F)(F)F)cc2CS(C)(=O)=O)c1OCc1ccccc1F [Example 17] | strong activity | logP = 3.29^a) |  |  | 
25 | CCn1ncc(C(=O)c2ccc(C(F)(F)F)cc2CS(C)(=O)=O)c1OCc1ccccc1Cl [Example 18] | strong activity | logP = 3.56^a) |  |  | strong activity
26 | CCOC(=O)C(C)Oc1c(C(=O)c2ccc(C(F)(F)F)cc2CS(C)(=O)=O)cnn1C (centres unmarked) [Example 28] |  | logP = 2.70^a) |  |  | 
27 | Cn1ncc(C(=O)c2ccc(C(F)(F)F)cc2CS(C)(=O)=O)c1OCc1ccc(F)cc1 [Example 6] | strong activity | logP = 3.02^a) |  |  | 
28 | CCn1ncc(C(=O)c2ccc(C(F)(F)F)cc2CS(C)(=O)=O)c1OCC(=O)c1ccccc1 [Example 20] | strong activity | logP = 3.01^a) |  |  | strong activity
29 | CCn1ncc(C(=O)c2ccc(C(F)(F)F)cc2CS(C)(=O)=O)c1OCc1ccc(F)cc1 [Example 12] | strong activity | logP = 3.30^a) |  |  | 
30 | CS(=O)(=O)Cc1cc(C(F)(F)F)ccc1C(=O)C1=C(Cl)CCCC1=O [Example 33] |  | logP = 2.42^a) |  |  | 
31 | C#CCOc1c(C(=O)c2ccc(C(F)(F)F)cc2CS(C)(=O)=O)cnn1CC [Example 24] |  | logP = 2.59^a) |  |  | 
